Counter-ions that a name gives are not always drawn.
Key:
[1] = tested on: A549 human line (non-small cell lung cancer); assay: Cytotoxicity test: cell growth inhibition of the A549 human line (ATP-lite luminescence); format: cell-based; conditions: A549 cells, 48 hrs incubation with compound, read-out: IC50 (concentration providing a 50% inhibition of cell proliferation)
Experimental: A cytotoxicity test is used. It measures the cell growth inhibition of the A549 human line (non-small cell lung cancer):
The A549 tumor cells are plated in a 96-well plate in RPMI 1640 medium free of phenol red (Seromed) to which is added 5% of fetal calf serum (100 μl/well, 1.25×10^4 cells/ml). After incubation for 24 hrs at 37° C. in an incubator at 5% CO2, the medium is replaced by that containing the compound to be tested, followed by incubation of the plates for another 48 hrs. Cell survival is assessed by measuring the luminescence after salting-out of the ATP from the medium using the cell lysis, luciferase and luciferine solutions included in the ATP-lite-M™ kit following the manufacturer's guidelines (Packard, Rungis, France). Each experimental condition was tested at least three times in sixplicate.

P388 murine leukemia = assay: Experimental P388 tumor model, survival of mice; format: in vivo; conditions: dose of 0.16 mg/kg
From the text: Experimental P388 tumor model. The model used is P388 murine leukemia (Tumor Models in Cancer Research. Teicher, B. A. ed., Humana Press Inc., Totowa, N.J. Pp. 23-40, 2002), which is maintained by sequential intraperitoneal transplantations in DBA/2 mice (DBA/2JIco mice, Charles River), as previously disclosed (Classic in vivo cancer models: Three examples of mouse models used in experimental therapeutics. Current Protocols in Pharmacology Unit 5.24: 5.24.1-5.24.16, 2001).
The experiment is carried out according to a previously disclosed protocol (Cancer Chemother. Pharmacol. 1998, 41, 437-447). This comprises implanting 10^6 P388 leukemia cells per mouse into C2DF1 hybrid mice (CD2F1/CrlBR, Charles River, St Aubin-les-Elbeuf, France) intravenously at day zero. After the animals have been randomized in treatment and control cages, the compounds to be tested are administered in one single injection by intraperitoneal route the day after the tumor transplantation, at day 1. The animals are then monitored every day, weighed twice per week, and any clinical reaction is recorded. The survival rate is the parameter used to assess antitumor activity. […] The T/Csurvival ratio is calculated for each dosage and the largest value obtained represents the maximum increase in survival rate achieved (maximum activity), which is defined as the optimum T/Csurvival ratio.

melting point	Compound	further results
191 °C	COc1cc(C2c3cc4c(cc3[C@@H](NS(=O)(=O)CCNCCCNCCCCNCCCN)[C@H]3COC(=O)[C@H]23)OCO4)cc(OC)c1O (stereo partly drawn) (as salt: hydrochloride)	
213 °C	COc1cc(C2c3cc4c(cc3[C@@H](NC(=O)NCCCNCCCNCCCCNCCCN)[C@H]3COC(=O)[C@H]23)OCO4)cc(OC)c1O (stereo in doubt)	
284 °C	COc1cc(C2c3cc4c(cc3[C@@H](NC(=O)CCCN)[C@H]3COC(=O)[C@H]23)OCO4)cc(OC)c1O (stereo in doubt) (as salt: hydrochloride)	

The next lines start with the compound.

Compound	melting point	further results
COc1cc(C2c3cc4c(cc3[C@@H](NC(=O)CCCN(C)C)[C@H]3COC(=O)[C@H]23)OCO4)cc(OC)c1O (stereo in doubt) (as salt: hydrochloride)	169 °C	
COc1cc(C2c3cc4c(cc3[C@@H](NC(=O)CCCNCCCNCCCCNCCCN)[C@H]3COC(=O)[C@H]23)OCO4)cc(OC)c1O (stereo partly drawn) [Compound 21, 4-{3-[4-(3-Aminopropylamino)-butylamino]-propylamino}-N-[9-(4-hydroxy-3,5-dimethoxyphenyl)-8-oxo-5,5a,6,8,8a,9-hexahydrofuro[3′,4′:6,7]-naphtho[2,3-d][1,3]dioxol-5-yl]-butyramide]		IC50 [1]: 1.7 nM; optimum T/Csurvival value (P388 murine leukemia; single intraperitoneal injection at day 1, 10^6 P388 cells intravenously at day 0, mice): 186%; increase in survival rate of the animals (P388 murine leukemia; single intraperitoneal injection at day 1, P388 leukemia mice): 86%
COc1cc(C2c3cc4c(cc3[C@@H](NC(=O)NCCCNCCCCNCCCN)[C@H]3COC(=O)[C@H]23)OCO4)cc(OC)c1O (stereo partly drawn) (as salt: hydrochloride) [Compound 48, 1-{3-[4-(3-Aminopropylamino)-butylamino]-propyl}-3-[9-(4-hydroxy-3,5-dimethoxyphenyl)-8-oxo-5,5a,6,8,8a,9-hexahydrofuro[3′,4′:6,7]-naphtho[2,3-d][1,3]dioxol-5-yl]-urea]	166 °C	
COc1cc(C2c3cc4c(cc3[C@@H](NC(=O)NCCCNCCCCNCCCN)[C@H]3COC(=O)[C@H]23)OCO4)cc(OC)c1O (stereo partly drawn) [Compound 48, 1-{3-[4-(3-Aminopropylamino)-butylamino]-propyl}-3-[9-(4-hydroxy-3,5-dimethoxyphenyl)-8-oxo-5,5a,6,8,8a,9-hexahydrofuro[3′,4′:6,7]-naphtho[2,3-d][1,3]dioxol-5-yl]-urea]		IC50 [1]: 12 nM

From US8492567B2, “(Poly)Aminoalkylaminoalkylamide, alkyl-urea, or alkyl-sulfonamide derivatives of epipodophyllotoxin, a process for preparing them, and application thereof in therapy as anticancer agents” (Pierre Fabre Medicament, priority 2008, dated 2013)
